Row | Compound | melting point [°C]
1 | CCOc1cc(C(Cc2c(Cl)cncc2Cl)N2Cc3cccc(NC(=O)C4CC4)c3C2=O)ccc1OC (stereo not drawn) [Example 22, Cyclopropanecarboxylic acid {2-[2-(3,5-dichloro-pyridin-4-yl)-1-(3-ethoxy-4-methoxy-phenyl)-ethyl]-3-oxo-2,3-dihydro-1H-isoindol-4-yl}-amide] | 159 to 161
2 | CCOc1cc([C@@H](CC(C)(C)O)N2Cc3cccc(NC(=O)C4CC4)c3C2=O)ccc1OC [Example 23, (1R)-Cyclopropanecarboxylic acid {2-[1-(3-ethoxy-4-methoxy-phenyl)-3-hydroxy-3-methyl-butyl]-3-oxo-2,3-dihydro-1H-isoindol-4-yl}-amide] | 90 to 92
3 | CCOc1cc([C@@H](CC(=O)NOC(=O)C2CC2)N2Cc3cccc(NC(=O)C4CC4)c3C2=O)ccc1OC [Example 24, (1R)-Cyclopropanecarboxylic acid {2-[2-cyclopropanecarbonyloxycarbamoyl-1-(3-ethoxy-4-methoxy-phenyl)-ethyl]-3-oxo-2,3-dihydro-1H-isoindol-4-yl}-amide] | 130 to 132
4 | CCOc1cc([C@@H](CC(=O)NOC(=O)C(C)C)N2Cc3cccc(NC(=O)C4CC4)c3C2=O)ccc1OC [Example 25, (1R)-Cyclopropanecarboxylic acid {2-[1-(3-ethoxy-4-methoxy-phenyl)-2-isobutyryloxycarbamoyl-ethyl]-3-oxo-2,3-dihydro-1H-isoindol-4-yl}-amide] | 107 to 109
5 | CCOc1cc([C@@H](CC(=O)NOC(=O)C(C)(C)C)N2Cc3cccc(NC(=O)C4CC4)c3C2=O)ccc1OC [Example 26, (1R)-Cyclopropanecarboxylic acid {2-[2-(2,2-dimethyl-propionyloxycarbamoyl)-1-(3-ethoxy-4-methoxy-phenyl)-ethyl]-3-oxo-2,3-dihydro-1H-isoindol-4-yl}-amide] | 146 to 148
6 | CCOc1cc([C@@H](CC(=O)NOC(=O)CC(C)(C)C)N2Cc3cccc(NC(=O)C4CC4)c3C2=O)ccc1OC [Example 27, (1R)-Cyclopropanecarboxylic acid {2-[2-(3,3-dimethyl-butyryloxycarbamoyl)-1-(3-ethoxy-4-methoxy-phenyl)-ethyl]-3-oxo-2,3-dihydro-1H-isoindol-4-yl}-amide] | 118 to 120

Continued, values first:

Row | melting point [°C] | Compound
7 | 176 to 178 | CCOc1cc([C@@H](CS(C)(=O)=O)N2Cc3c(F)ccc(NC(=O)C4CC4)c3C2=O)ccc1OC [Example 28, (1S)-Cyclopropanecarboxylic acid {2-[1-(3-ethoxy-4-methoxy-phenyl)-2-methanesulfonyl-ethyl]-7-fluoro-3-oxo-2,3-dihydro-1H-isoindol-4-yl}-amide]
8 | 205 to 207 | CCOc1cc([C@@H](CS(C)(=O)=O)N2Cc3c(Cl)ccc(NC(=O)N(C)C)c3C2=O)ccc1OC [Example 29, (1S)-3-{7-Chloro-2-[1-(3-ethoxy-4-methoxy-phenyl)-2-methanesulfonyl-ethyl]-3-oxo-2,3-dihydro-1H-isoindol-4-yl}-1,1-dimethyl-urea]
9 | 205 to 207 | CCOc1cc([C@@H](CS(C)(=O)=O)N2Cc3c(Cl)ccc(NC(=O)CN4CCN(C)CC4)c3C2=O)ccc1OC [Example 30, (1S)—N-{7-Chloro-2-[1-(3-ethoxy-4-methoxy-phenyl)-2-methanesulfonyl-ethyl]-3-oxo-2,3-dihydro-1H-isoindol-4-yl}-2-(4-methyl-piperazin-1-yl)-acetamide]

— patent publication US7799819B2, “7-Amido-isoindolyl compounds and their pharmaceutical uses” (Celgene Corporation, priority 2003, dated 2010)
